Experimental data: patent US5077207A, “Process for the production of L-threonine by fermentation” (Ajinomoto Co., Inc., priority 1989, dated 1991)

Tests used:
[1] = tested on: AJ 12361 (Mutant); experiment: Degree of AHV resistance (growth in glucose minimum liquid medium, absorbance); type: cell-based; details: [Brevibacterium] flavum, 24 h, read-out: Relative Degree of Growth (%)
Procedure: (§1) Thereafter, the degrees of AHV resistance of DPS deleted strains AJ 12360 and AJ 12361 were compared against their parent strains. The degree of AHV resistance was determined by cultivating the strain in the complete agar plate medium shown in Table 2 which also contained 1 g/l of DAP, […] of dipicolinic acid and further, in the case of AJ 12361 and its parent strain AC 664, 300 mg/l of L-histidine hydrochloride as a growth promoting substance, at 30° C. for 24 hours. The same medium dispensed in 3 ml into test tubes, was inoculated with the cells, and the inoculated media were cultured while being shaked for 24 hours. The absorbance of each medium was measured at 566 nm under conditions in which AHV was added or was not added to a given medium. To each glucose minimum liquid medium prepared were added, as growth promoting substances, 200 mg/l of L-histidine hydrochloride, in the case of AJ 12361 and AC 664 strains, and 500 mg/l each of DAP and lysine in the case of AJ 12360 and AJ 11955 strains. Especially, since DAP or DAP and lysine often promoted the growth of the DPS deleted or reduced strain, DAP was added to the liquid and plate media in the experiments described so far as needed. […]

[2] = tested on: AJ 12360 (Mutant); experiment: as above; type: cell-based; details: [Brevibacterium] flavum, 24 h, read-out: Relative Degree of Growth (%)
Procedure: as §1

[3] = target: Homoserine Dehydrogenase (Corynebacterium glutamicum, UniProt P08499); experiment: Homoserine dehydrogenase feedback inhibition by threonine (crude enzyme solution); type: biochemical, Brevibacterium flavum; details: 1 mM threonine
Sequence of Homoserine Dehydrogenase (P08499 whole entry): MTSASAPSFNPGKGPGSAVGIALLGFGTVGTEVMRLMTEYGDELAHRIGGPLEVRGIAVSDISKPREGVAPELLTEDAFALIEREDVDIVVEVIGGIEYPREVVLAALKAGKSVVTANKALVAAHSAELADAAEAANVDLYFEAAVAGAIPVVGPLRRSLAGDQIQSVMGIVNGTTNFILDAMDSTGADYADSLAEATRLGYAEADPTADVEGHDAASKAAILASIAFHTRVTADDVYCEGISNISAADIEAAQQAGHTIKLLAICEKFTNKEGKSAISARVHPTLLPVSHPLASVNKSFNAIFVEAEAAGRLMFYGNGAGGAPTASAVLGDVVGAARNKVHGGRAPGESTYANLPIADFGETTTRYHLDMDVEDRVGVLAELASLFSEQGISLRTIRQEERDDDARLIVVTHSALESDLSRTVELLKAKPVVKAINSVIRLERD
Procedure: The amount of threonine produced in a given fermentation experiment was measured by the method described below, and the amount of lysine produced was measured by an acidic ninhydrin method. Further, the DPS activity was measured as follows. A medium obtained by adding 1 g/l of DAP to a medium useful for threonine production shown in Table 3 was dispensed in 20 ml amounts into 500 ml flasks which could be shaken. The flasks were sterilized by autoclaving. The medium compositions used were N50S30 for the AJ 12360 strain and N25S35 for the AJ 12361-2 and DA 110 strains. Each medium was inoculated with one loop of the strain which had been previously cultivated in a complete agar plate medium shown in Table 2. Each medium was supplemented with 1 g/l of DAP and 300 mg/l of L-histidine hydrochloride at 30° C. for 24 hours, and culturing was conducted at 30° C. for 40 hours in the shaking flasks. The cells were collected and washed with a 0.2% potassium chloride solution. These washed cells were suspended in a 50 mM potassium phosphate buffer (pH 7.0), and then were centrifugally separated after ultrasonic treatment in a supernatant. The supernatant was gel filtered through a Sephadex G25 column using the same buffer to prepare a crude enzyme solution. The activity was measured by carrying out the reaction at 30° C. for 10 minutes, terminating the reaction by adding 1 ml of 0.05 N hydrochloric acid thereto, and then measuring the change in absorbance at 340 nm by using a reaction mixture shown in Table 8 to determine the amount of pyruvic acid consumed. The control for this reaction was a DL-aspartate-β-semialdehyde-free system. The HD activity was measured as follows. The crude enzyme solution was prepared in a manner similar to that employed in the above-described DPS activity measurement, except that a 0.1 M potassium phosphate buffer containing 0.5 M potassium chloride (pH 7.0) was used as the buffer instead of the 50 mM potassium phosphate buffer. The activity measurement was conducted by measuring the reduction in absorbance at 340 nm in the reaction system shown in Table 9. The control for this reaction was a DL-aspartate-β-semialdehyde-free system. […]

Compound | activity at 200000 µg/mL [1] [%] | activity at 500000 µg/mL [1] [%] | activity at 1 g/mL [1] [%] | activity at 200000 µg/mL [2] [%] | activity at 500000 µg/mL [2] [%] | activity at 1 g/mL [2] [%] | Homoserine Dehydrogenase Feedback Inhibition (%)** ([3]; enzyme from strain AC 664 (Parent strain)) [%] | Homoserine dehydrogenase feedback inhibition by threonine (%) ([3]; enzyme from strain AJ 11955 (parent strain)) | Homoserine dehydrogenase feedback inhibition by threonine (%) ([3]; enzyme from strain AJ 12360 (mutant)) | Homoserine Dehydrogenase Feedback Inhibition (%)** ([3]; enzyme from strain AJ 12361 (Mutant)) [%] | Homoserine Dehydrogenase Feedback Inhibition (%)** ([3]; enzyme from strain AJ12362 (Mutant)) [%] | Homoserine Dehydrogenase Feedback Inhibition (%)** ([3]; enzyme from strain AJ12363 (Mutant)) [%] | Homoserine Dehydrogenase Feedback Inhibition (%)** ([3]; enzyme from strain DA 110 (Mutant)) [%]
CCC(O)C(N)C(=O)O (stereo not drawn) [AHV, α-amino-β-hydroxyvaleric acid] | 105 | 65.8 | 39.1 | 46.7 | 42.6 | 37.5 |  |  |  |  |  |  | 
C[C@@H](O)[C@H](N)C(=O)O [threonine, L-threonine] |  |  |  |  |  |  | 98 | 98 | 98 | 98 | 96 | 16 | 98
